Reference: patent publication US20050209157A1, “Short bioactive peptides and methods for their use” (priority 2001, published 2005)
≈ marks a conversion by molar mass, not a printed value. No end group written: not given here.

Legend:
[1] = tested on: Escherichia coli ATCC 25922; test: Antimicrobial assay I, modified protocol (tryptic soy broth), MBC; details: minimum bactericidal concentration, Table 4
[2] = tested on: Stapholococcus aureus ATCC 25923; test: as above; details: minimum bactericidal concentration, Table 4
Method: (§1) The preparation of all media, stock solutions, and dilutions took place in a laminar flow hood to prevent contamination. Bacterial cells were freshly grown on antibiotic medium 2 agar slants (pH 7.0 at 25° C.). Bacteria were suspended and diluted in antibiotic medium 3 to about 10^4 cfu/ml and used as the inoculum. Sample solutions (100 μl/well) were added to plates according to the plate layout. Inoculum (100 μl/well) was added to achieve a final concentration of 5×10^3 cfu/ml. Negative controls received 100 μl saline and 100 μl growth medium. Positive controls received 100 μl saline and 100 μl inoculum. Bacterial plates were incubated at 37° C. for 24 hours.
(§2) However, the data for Table 4 were obtained with a modified protocol wherein the medium was tryptic soy broth, inocolum strength was approximately 10^4 CFU per ml, and values determined were minimum bactericidal concentrations (MBC) or minimum fungicidal concentrations (MFC).
(§3) MBC or MFC values are in μg/mL. E. coli is Escherichia coli ATCC accession number 25922; P. aerug is Pseudomonas aeruginosa ATCC accession number 27853, S. aur. is Stapholococcus aureus ATCC accession number 25923; Candida is Candida albicans ATCC accession number 10231.

[3] = tested on: Candida albicans ATCC 10231; test: Antimicrobial assay I, modified protocol (tryptic soy broth), MFC; details: minimum fungicidal concentration, Table 4
Method: as §1, §2, §3

[4] = tested on: Pseudomonas aeruginosa ATCC 27853; test: Antimicrobial assay I, modified protocol (tryptic soy broth), MBC; details: minimum bactericidal concentration, Table 4
Method: as §1, §2, §3

Row | Compound | MBC E. coli A.25922 [1] | MBC S. aur A.25923 [2] | MFC Candida A.10231 [3] | MBC P. aerug A.27853 [4]
1 | CC(C)C[C@H](NC(=O)[C@H](CCCCN)NC(=O)[C@H](C)NC(=O)[C@H](CC(C)C)NC(=O)[C@H](CC(C)C)NC(=O)[C@H](CCCCN)NC(=O)[C@H](C)NC(=O)[C@@H](N)Cc1ccccc1)C(=O)N[C@@H](C)C(=O)N[C@@H](CCCCN)C(=O)N[C@@H](C)C(=O)N[C@@H](CCCCN)C(=O)N[C@@H](C)C(N)=O [compound 95] | >50 mg/L | >50 mg/L | >50 mg/L | >50 mg/L
2 | CC(C)C[C@H](NC(=O)[C@H](C)NC(=O)[C@H](CCCCN)NC(=O)[C@H](CCCCN)NC(=O)[C@H](C)NC(=O)[C@H](CC(C)C)NC(=O)[C@H](CCCCN)NC(=O)[C@H](C)NC(=O)[C@H](CC(C)C)NC(=O)[C@H](CC(C)C)NC(=O)[C@H](CCCCN)NC(=O)[C@H](C)NC(=O)[C@@H](N)Cc1ccc(O)cc1)C(N)=O [compound 155] | >250 mg/L | >250 mg/L | >250 mg/L | >250 mg/L
3 | KWKLF-NH2 [compound 131] | INACT | INACT | INACT | INACT
4 | FAKLLFKALKKAL-NH2 [compound 112] | 30 mg/L | INACT | INACT | INACT
5 | FAKLLAKFLKKAL-NH2 [compound 113] | INACT | INACT | 40 mg/L | INACT
6 | CC(C)C[C@H](NC(=O)[C@H](CCCCN)NC(=O)[C@H](CCCCN)NC(=O)[C@H](Cc1c[nH]c2ccccc12)NC(=O)[C@@H](N)CCCCN)C(=O)N[C@@H](C)C(=O)N[C@@H](CCCCN)C(=O)N[C@@H](CCCCN)C(=O)N[C@@H](Cc1c[nH]c2ccccc12)C(=O)O [compound 162] | 50 mg/L (≈ 41.1 µM) | >250 mg/L | 100 mg/L (≈ 82.3 µM) | >250 mg/L
7 | CC(C)C[C@H](NC(=O)[C@H](CC(C)C)NC(=O)[C@H](CCCCN)NC(=O)[C@H](CCCCN)NC(=O)[C@H](C)NC(=O)[C@H](CC(C)C)NC(=O)[C@H](CCCCN)NC(=O)[C@H](CCCCN)NC(=O)[C@H](C)NC(=O)[C@@H](N)Cc1ccccc1)C(N)=O [compound 59] | >50 mg/L | >50 mg/L | >50 mg/L | >50 mg/L
8 | CC(C)C[C@H](NC(=O)[C@H](CCCCN)NC(=O)[C@H](CC(C)C)NC(=O)[C@H](C)NC(=O)[C@H](CCCCN)NC(=O)[C@H](C)NC(=O)[C@H](CC(C)C)NC(=O)[C@H](CC(C)C)NC(=O)[C@H](CCCCN)NC(=O)[C@H](CCCCN)NC(=O)[C@H](C)NC(=O)[C@@H](N)Cc1ccccc1)C(N)=O [compound 110] | 8 mg/L (≈ 5.96 µM) | >50 mg/L | >50 mg/L | >50 mg/L
9 | FAKIIAKIAKIAKKIL-NH2 [compound 139] | INACT | INACT | INACT | INACT
10 | CC(C)C[C@H](NC(=O)[C@H](C)NC(=O)[C@H](C)NC(=O)[C@H](CCCCN)NC(=O)[C@H](C)NC(=O)[C@H](CC(C)C)NC(=O)[C@H](CCCCN)NC(=O)[C@H](CCCCN)NC(=O)[C@H](C)NC(=O)[C@H](CC(C)C)NC(=O)[C@H](CCCCN)NC(=O)[C@H](CCCCN)NC(=O)[C@H](C)NC(=O)[C@@H](N)Cc1ccccc1)C(N)=O [compound 76] | 40 mg/L (≈ 26.7 µM) | >55 mg/L | >50 mg/L | >55 mg/L
11 | CC(C)C[C@H](NC(=O)[C@H](CCCCN)NC(=O)[C@H](C)NC(=O)[C@H](CC(C)C)NC(=O)[C@H](CC(C)C)NC(=O)[C@H](CCCCN)NC(=O)[C@H](C)NC(=O)[C@@H](N)Cc1ccccc1)C(=O)N[C@@H](C)C(=O)N[C@@H](CCCCN)C(=O)N[C@@H](CCCCN)C(=O)N[C@@H](C)C(=O)N[C@@H](C)C(N)=O [compound 93] | >50 mg/L | >50 mg/L | >50 mg/L | >50 mg/L
12 | CC(C)C[C@H](NC(=O)CNC(=O)[C@H](CCCCN)NC(=O)[C@H](CCCCN)NC(=O)[C@H](C)NC(=O)[C@H](CC(C)C)NC(=O)[C@H](CCCCN)NC(=O)[C@H](C)NC(=O)[C@H](CC(C)C)NC(=O)[C@H](CC(C)C)NC(=O)[C@H](CCCCN)NC(=O)[C@H](C)NC(=O)[C@@H](N)Cc1ccccc1)C(N)=O [compound 152] | 150 mg/L (≈ 107 µM) | >250 mg/L | 50 mg/L (≈ 35.7 µM) | 150 mg/L (≈ 107 µM)
13 | CC(C)C[C@H](NC(=O)[C@H](CC(C)C)NC(=O)[C@H](CCCCN)NC(=O)[C@H](CCCCN)NC(=O)[C@H](C)NC(=O)[C@H](CC(C)C)NC(=O)[C@H](CC(C)C)NC(=O)[C@H](CCCCN)NC(=O)[C@H](C)NC(=O)[C@@H](N)Cc1ccccc1)C(N)=O [compound 57] | >50 mg/L | >50 mg/L | >50 mg/L | >50 mg/L
14 | FAKLFAKAFKKAL-NH2 [compound 117] | INACT | INACT | INACT | INACT
15 | FAKAIAKIAFGKGIGKVGKKLL-NH2 [compound 134] | INACT | INACT | INACT | INACT
16 | FALALKA-NH2 [compound 141] | INACT | INACT | INACT | INACT
17 | CC(C)C[C@H](NC(=O)[C@H](C)NC(=O)[C@H](CCCCN)NC(=O)[C@H](CCCCN)NC(=O)[C@H](C)NC(=O)[C@H](CC(C)C)NC(=O)[C@H](CCCCN)NC(=O)[C@H](C)NC(=O)[C@H](CC(C)C)NC(=O)[C@H](CC(C)C)NC(=O)[C@H](CCCCN)NC(=O)[C@H](C)NC(=O)[C@@H](N)Cc1ccccc1)C(N)=O [compound 54] | 15 mg/L (≈ 10.6 µM) | 15 mg/L (≈ 10.6 µM) | 30 mg/L (≈ 21.2 µM) | 40 mg/L (≈ 28.3 µM)
18 | FAKLF-NH2 [compound 129] | INACT | INACT | INACT | INACT
19 | FAKLLAKLAKKFAL-NH2 [compound 120] | INACT | INACT | INACT | INACT
20 | FAFGKGIGKVGKKLL-NH2 [compound 133] | INACT | INACT | INACT | INACT
21 | CC(C)C[C@H](NC(=O)[C@H](CCCCN)NC(=O)[C@H](CC(C)C)NC(=O)[C@H](CCCCN)NC(=O)[C@H](C)NC(=O)[C@H](CC(C)C)NC(=O)[C@H](CCCCN)NC(=O)[C@H](C)NC(=O)[C@H](CC(C)C)NC(=O)[C@H](CC(C)C)NC(=O)[C@H](CCCCN)NC(=O)[C@H](C)NC(=O)[C@@H](N)Cc1ccccc1)C(N)=O [compound 66] | 40 mg/L (≈ 27.5 µM) | 30 mg/L (≈ 20.6 µM) | 40 mg/L (≈ 27.5 µM) | 50 mg/L (≈ 34.3 µM)
